Test results: EP2252246B1, “CHEMOPROTECTIVE METHODS AND COMPOSITIONS” (BIONUMERIK PHARMACEUTICALS, INC., priority 2008, dated 2009)

Assays:
[1] = system: patients with advanced non-small cell lung carcinoma (NSCLC); assay: Japan Phase III Clinical Trial (paclitaxel + cisplatin, placebo-controlled; PNQ primary evaluation); assay type: in vivo, human; conditions: paclitaxel/Tavocept/cisplatin vs paclitaxel/saline placebo/cisplatin, NSCLC patients (Figure 5)
Description: The Japan Phase III Clinical Trial was conducted as a double-blind study because peripheral neuropathy is diagnosed based on subjective symptoms evaluated through clinical interviews, lab tests, and the like. Accordingly, evaluations by both physicians and patients are highly important. […] A placebo was used as control since there is no established therapy or drug for preventing peripheral neuropathy. Because the severity of peripheral neuropathy is evaluated based on patients' reports (i.e., subjective symptoms), the Peripheral Neuropathy Questionnaire (PNQ^© was used in primary evaluation. The CIPN-20 questionnaire and the National Cancer Institute - Common Toxicity Criteria (NCI-CTC) were used in secondary evaluation. The incidence and severity of adverse reactions, time to their onset, etc. and the like, were compared between patients treated with Tavocept™ and those given a placebo using the aforementioned methods.
The Primary Endpoint of the Japan Phase III Clinical Trial described in the present invention was specifically designed to test the hypothesis of whether chemotherapy-induced intermittent peripheral neuropathy would occur. […] The results illustrated in Figure 3 indicate that intermittent peripheral neuropathy was specifically identified and measured in the Japan Phase III Clinical Trial. […]

[2] = system: tubulin; conditions: paclitaxel 6 µM; cited from earlier work
[3] = system: paclitaxel-induced neuropathy model; assay: Paclitaxel-induced thermoparesthesia in the paclitaxel-induced neuropathy model; assay type: in vivo, rats; conditions: for maximum inhibition rate (thermoparesthesia): paclitaxel 6 mg/kg i.v. 5-times every other day
[4] = human, in vivo
Description: • Figure 1 illustrates a comparison of the number of hypersensitivity Adverse Events between groups of patients in whom 2,2'-dithio-bis-ethane sulfonate or a placebo was infused over (1) 30 minutes, (2) 30 and 45 minutes, or (3) 45 minutes. […] Drug concentrations of disodium 2,2'-dithio-bis-ethane sulfonate administered were 200 mg/mL infused over 30 minutes, 200 mg/mL and 100 mg/mL infused over 30 & 45 minutes, respectively, and 100 mg/mL infused over 45 minutes.
The patients' body surface area (BSA) was determined based on the use of standard methods that are customarily used for such purposes, including standardized nomograms and calculations that utilize the individual height and weight data from each patient.
Figure 1 illustrates a comparison of the number of hypersensitivity Adverse Events between groups of patients in whom 2,2'-dithio-bis-ethane sulfonate or a placebo was infused over (1) 30 minutes, (2) 30 minutes and 45 minutes, or (3) 45 minutes. In addition, the total number of hypersensitivity Adverse Events, the mean time to the first hypersensitivity Adverse Event, and a variety of the types of hypersensitivity Adverse Events were also shown.
Drug concentrations administered were about 200 mg/mL infused over about 30 minutes, about 200 mg/mL and about 100 mg/mL infused over about 30 & about 45 minutes, respectively, and about 100 mg/mL infused over about 45 minutes.

O=S(=O)([O-])CCSSCCS(=O)(=O)[O-].[Na+].[Na+] [Tavocept, disodium 2,2'-dithio-bis-ethane sulfonate]
reduction in severe (Grade D or E) intermittent or cumulative peripheral neuropathy [1]: ~50% | concentration that inhibits tubulin polymerization induced by paclitaxel [2]: 6 mM | maximum inhibition rate (thermoparesthesia) ([3]; 1,000 mg/kg): 41.7% | inhibition rates of thermoparesthesia ([3]; 2,000 mg/kg i.v. immediately after paclitaxel 12 mg/kg i.p. once a week for 5 weeks): 19.2-34.1% | maximum inhibition rate (thermoparesthesia) ([3]; 2,000 mg/kg): 41.5% | reduction in hypersensitivity Adverse Events in the treatment population [4]: ≤ 57%
